The record followed here is PubChem BioAssay AID588363 (Broad Institute, 2011).

Calls of active or inactive are those of the source.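 How the source made its calls: active means compounds lowering polarization with half-effect concentration at most ten times their top valid dose; inconclusive means flat fit with 30 to 70 percent drop, or poor fit; inactive means the rest.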

This assay has as its target KSHV LANA C-terminal domain (residues 932-1162), DNA binding. Briefly: KSHV LANA C-terminal domain DNA-binding blockers – biochemical, fluorescence polarization, MBP fusion, dry powder, dose response (AID 588363). The settings on record: MBP-C-LANA/LBS DNA binding; for activity change, negative = inhibition: at 35 µM (top of the series). In general terms: Polarisation of emitted light reports the rotation of a fluorescent probe.

On to `O=c1c(O)cccc2cc(O)c(O)c(O)c12`, for which the AC50 (usually the midpoint of the concentration-response curve, whichever way the signal moves) is 5.21 µM.

`CSc1ccc(/C=N/Nc2cccc(C(=O)O)c2)cc1`: the AC50 was 6.54 µM.

Consider `COC(=O)c1ccccc1NC(=O)CCS(=O)(=O)c1ccc(Br)cc1`, for which the AC50 was 16.1 µM.

With `O=C(O)c1cc(N2N=C(C(F)(F)F)/C(=C/C=C/c3ccco3)C2=O)ccc1Cl`, the AC50 is 6.05 µM.

`CC(=O)c1ccc2c(c1)C1C=CCC1C(C(=O)O)N2` (configuration not stated): the AC50 was 4.46 µM.

Take `CN(C)S(=O)(=O)c1cc(C(=O)NC2CCSc3ccccc32)ccc1Cl` (configuration not stated): the “activity change, negative = inhibition” value was “inactive”.

With `Nc1c(/C=C2\C=CC(=O)C(O)=C2)c(=O)nc2sc(CC(=O)N3CCCCC3)nn12`, the “activity change, negative = inhibition” value is “inactive”.

`CC1(C)[C@@H](O[C@H]2O[C@H](C(=O)O)[C@@H](O)[C@H](O)[C@H]2O[C@@H]2O[C@H](C(=O)O)[C@@H](O)[C@H](O)[C@H]2O)CC[C@]2(C)[C@H]3C(=O)C=C4[C@@H]5C[C@@](C)(C(=O)O)CC[C@]5(C)CC[C@@]4(C)[C@]3(C)CC[C@@H]12`: the “activity change, negative = inhibition” value was “inactive”.

`CCC(=O)Oc1ccc2c(c1)O/C(=C\c1ccco1)C2=O`: the AC50 was 16.8 µM.

With `CC1=NN(c2cccc(C(=O)O)c2)C(=O)/C1=C\C=C\c1ccco1`, the concentration at half-maximal activity (AC50) was 31.2 µM.

On to `O=C(O)CCNc1ccc(NCCC(=O)O)c2c1C(=O)c1ccccc1C2=O`, for which the AC50 is 24.4 µM.

Take `Clc1ccc(-c2nnc3sc(-c4ccc(Br)o4)nn23)cc1`: the “activity change, negative = inhibition” value was “inactive”.

As to `O=C(O)C1Nc2ccc(Br)cc2C2C=CCC12` (configuration not stated), the AC50 is 3.33 µM.

Consider `O=C1/C(=C/c2ccco2)Oc2c1ccc(O)c2CN1CCCCC1`, for which the AC50 is 8.54 µM.

Regarding `O=C(O)C1Nc2c(O)cc(Cl)c([N+](=O)[O-])c2C2C=CCC12` (configuration not stated), the AC50 was 13.2 µM.

Take `Nc1c(C(=O)Nc2ccccc2F)sc2nc(Cc3ccccc3)cc(C(F)(F)F)c12`: the AC50 was 23.1 µM.

In the case of `O=C1CCCC(O)=C1N=Nc1ccc(C(=O)O)cc1`, the AC50 is 20.6 µM.
